assay: PAMPA permeability, brain polar lipid extract (BPLE) membrane; conditions: Brain Polar lipid extract membrane, n=3

Mean logPe | Compound
-5.38 | CC1=NNS(=O)(=O)c2c1ccc(Cl)c2Cl [PGY0072]
< -6.32 | CC(C)c1nc(N(C)S(C)(=O)=O)nc(-c2ccc(F)cc2)c1/C=C/[C@@H](O)C[C@@H](O)CC(=O)O [rosuvastatin]
-5.64 | CN1C(C(=O)Nc2ccccn2)=C(O)c2ccccc2S1(=O)=O [piroxicam]
< -6.30 | CCn1cc(C(=O)O)c(=O)c2cc(F)c(N3CCNCC3)cc21 [norfloxacin]

Compound | Mean logPe
ondansetron | -4.71

same assay, conditions: Brain Polar lipid extract membrane, n=3; * = not detected at acceptor side, value calculated from limit of detection

Mean Pe | Compound
< 0,86* 10-6 cm/s | CCOC(=O)[C@H](CCc1ccccc1)N[C@@H](C)C(=O)N1[C@H](C(=O)O)C[C@@H]2CCC[C@@H]21 [ramipril]
4.23 10-6 cm/s | CC1=NNS(=O)(=O)c2c1ccc(Cl)c2Cl [PGY0072]
< 0,48* 10-6 cm/s | CC(C)c1nc(N(C)S(C)(=O)=O)nc(-c2ccc(F)cc2)c1/C=C/[C@@H](O)C[C@@H](O)CC(=O)O [rosuvastatin]
< 0,50* 10-6 cm/s | CCn1cc(C(=O)O)c(=O)c2cc(F)c(N3CCNCC3)cc21 [norfloxacin]

Compound | Mean Pe
ondansetron | 19.60 10-6 cm/s

same assay, conditions: pig, PAMPA, pH 7.4

Papp at 4 h, 100 μM [×10⁻⁶ cm/s] | Compound
2.35 | CN1C(C(=O)Nc2ccccn2)=C(O)c2ccccc2S1(=O)=O [piroxicam]

assay: PAMPA permeability, liver polar lipid extract (LPLE) membrane; conditions: bovine, PAMPA, pH 7.4, Mean Pe, n=3, * = not detected at acceptor side, value calculated from limit of detection

Papp at 4 h, 100 μM [×10⁻⁶ cm/s] | Compound
57 | O=C1CC2(CCCC2)CC(=O)N1CCCCN1CCN(c2ncccn2)CC1 [buspirone]
2.23 | CCOC(=O)[C@H](CCc1ccccc1)N[C@@H](C)C(=O)N1[C@H](C(=O)O)C[C@@H]2CCC[C@@H]21 [ramipril]
13.2 | COCCc1ccc(OCC(O)CNC(C)C)cc1 (stereo not shown) [metoprolol]
54.5 | Nc1c(Br)cc(Br)cc1CN[C@H]1CC[C@H](O)CC1 [ambroxol]
12.2 | CC1=NNS(=O)(=O)c2c1ccc(Cl)c2Cl [PGY0072]
10.3 | CN1C(C(=O)Nc2ccccn2)=C(O)c2ccccc2S1(=O)=O [piroxicam]
7.17 | CCn1cc(C(=O)O)c(=O)c2cc(F)c(N3CCNCC3)cc21 [norfloxacin]

same assay, conditions: bovine, PAMPA, pH 7.4, Mean logPe, n=3

Papp at 4 h, 100 μM [×10⁻⁶ cm/s] | Compound
19.5 | COCCc1ccc(OCC(O)CNC(C)C)cc1 (stereo not shown) [metoprolol]
5.25 | CCn1cc(C(=O)O)c(=O)c2cc(F)c(N3CCNCC3)cc21 [norfloxacin]

same assay, conditions: n=3

Mean logPe | Compound
-4.26 | Nc1c(Br)cc(Br)cc1CN[C@H]1CC[C@H](O)CC1 [ambroxol]
-4.91 | CC1=NNS(=O)(=O)c2c1ccc(Cl)c2Cl [PGY0072]
< -6.32 | CC(C)c1nc(N(C)S(C)(=O)=O)nc(-c2ccc(F)cc2)c1/C=C/[C@@H](O)C[C@@H](O)CC(=O)O [rosuvastatin]
-4.99 | CN1C(C(=O)Nc2ccccn2)=C(O)c2ccccc2S1(=O)=O [piroxicam]

Compound | Mean logPe
ondansetron | -4.59

same assay, conditions: n=3, * = not detected at acceptor side, value calculated from limit of detection

Compound | Mean Pe
CC(C)c1nc(N(C)S(C)(=O)=O)nc(-c2ccc(F)cc2)c1/C=C/[C@@H](O)C[C@@H](O)CC(=O)O [rosuvastatin] | < 0,48* 10-6 cm/s
ondansetron | 25.69 10-6 cm/s

assay: PAMPA permeability, heart polar lipid extract (HPLE) membrane; conditions: Heart Polar lipid extract membrane, n=3

Mean logPe | Compound
-4.96 | COCCc1ccc(OCC(O)CNC(C)C)cc1 (stereo not shown) [metoprolol]
-4.21 | Nc1c(Br)cc(Br)cc1CN[C@H]1CC[C@H](O)CC1 [ambroxol]
-5.35 | CC1=NNS(=O)(=O)c2c1ccc(Cl)c2Cl [PGY0072]
-5.80 | CCn1cc(C(=O)O)c(=O)c2cc(F)c(N3CCNCC3)cc21 [norfloxacin]

Compound | Mean logPe
ondansetron | -4.86

same assay, conditions: Heart Polar lipid extract membrane, n=3; * = not detected at acceptor side, value calculated from limit of detection

Mean Pe | Compound
< 0,98* 10-6 cm/s | CCOC(=O)[C@H](CCc1ccccc1)N[C@@H](C)C(=O)N1[C@H](C(=O)O)C[C@@H]2CCC[C@@H]21 [ramipril]
< 0,46* 10-6 cm/s | CC(C)c1nc(N(C)S(C)(=O)=O)nc(-c2ccc(F)cc2)c1/C=C/[C@@H](O)C[C@@H](O)CC(=O)O [rosuvastatin]

Compound | Mean Pe
ondansetron | 13.69 10-6 cm/s

same assay, conditions: bovine, PAMPA, pH 7.4

Papp at 4 h, 100 μM [×10⁻⁶ cm/s] | Compound
61.8 | Nc1c(Br)cc(Br)cc1CN[C@H]1CC[C@H](O)CC1 [ambroxol]
4.67 | CC1=NNS(=O)(=O)c2c1ccc(Cl)c2Cl [PGY0072]
< 0.468 | CC(C)c1nc(N(C)S(C)(=O)=O)nc(-c2ccc(F)cc2)c1/C=C/[C@@H](O)C[C@@H](O)CC(=O)O [rosuvastatin]
1.59 | CCn1cc(C(=O)O)c(=O)c2cc(F)c(N3CCNCC3)cc21 [norfloxacin]

assay: PAMPA permeability, comparison across the six natural lipid extract membranes; conditions: heart, liver and brain extracts, Figure 10A–C

total-polar permeability comparison | Compound
higher permeability in polar lipids | O=C1CC2(CCCC2)CC(=O)N1CCCCN1CCN(c2ncccn2)CC1 [buspirone]

assay: PAMPA permeability, heart total lipid extract (HTLE) membrane; conditions: Heart total lipid extract membrane, n=3

Mean logPe | Compound
-5.04 | COCCc1ccc(OCC(O)CNC(C)C)cc1 (stereo not shown) [metoprolol]
-4.40 | Nc1c(Br)cc(Br)cc1CN[C@H]1CC[C@H](O)CC1 [ambroxol]
-5.40 | CC1=NNS(=O)(=O)c2c1ccc(Cl)c2Cl [PGY0072]

Compound | Mean logPe
ondansetron | -5.01

same assay, conditions: Heart total lipid extract membrane, n=3; * = not detected at acceptor side, value calculated from limit of detection

Mean Pe | Compound
< 0,87* 10-6 cm/s | CCOC(=O)[C@H](CCc1ccccc1)N[C@@H](C)C(=O)N1[C@H](C(=O)O)C[C@@H]2CCC[C@@H]21 [ramipril]
< 0,48* 10-6 cm/s | CC(C)c1nc(N(C)S(C)(=O)=O)nc(-c2ccc(F)cc2)c1/C=C/[C@@H](O)C[C@@H](O)CC(=O)O [rosuvastatin]
< 0,54* 10-6 cm/s | CCn1cc(C(=O)O)c(=O)c2cc(F)c(N3CCNCC3)cc21 [norfloxacin]

Compound | Mean Pe
ondansetron | 9.85 10-6 cm/s

same assay, conditions: bovine, PAMPA, pH 7.4, Mean Pe, Heart total lipid extract membrane, n=3; * = not detected at acceptor side, value calculated from limit of detection

Papp at 4 h, 100 μM [×10⁻⁶ cm/s] | Compound
4.26 | CC1=NNS(=O)(=O)c2c1ccc(Cl)c2Cl [PGY0072]
1.92 | CN1C(C(=O)Nc2ccccn2)=C(O)c2ccccc2S1(=O)=O [piroxicam]

same assay, conditions: bovine, PAMPA, pH 7.4, Mean logPe, Heart total lipid extract membrane, n=3

Papp at 4 h, 100 μM [×10⁻⁶ cm/s] | Compound
< 0.479 | CC(C)c1nc(N(C)S(C)(=O)=O)nc(-c2ccc(F)cc2)c1/C=C/[C@@H](O)C[C@@H](O)CC(=O)O [rosuvastatin]
2.88 | CN1C(C(=O)Nc2ccccn2)=C(O)c2ccccc2S1(=O)=O [piroxicam]
< 0.537 | CCn1cc(C(=O)O)c(=O)c2cc(F)c(N3CCNCC3)cc21 [norfloxacin]

same assay, conditions: pH 7.4, 4 h, 37 °C; in words (PCA biplot, Figure 11B)

PAMPA permeability on HTLE | Compound
low | CC1=NNS(=O)(=O)c2c1ccc(Cl)c2Cl [PGY0072]
low | CN1C(C(=O)Nc2ccccn2)=C(O)c2ccccc2S1(=O)=O [piroxicam]

assay: PAMPA permeability, liver total lipid extract (LTLE) membrane; conditions: Liver total lipid extract membrane, n=3

Mean logPe | Compound
-4.4 | COCCc1ccc(OCC(O)CNC(C)C)cc1 (stereo not shown) [metoprolol]
-4.27 | Nc1c(Br)cc(Br)cc1CN[C@H]1CC[C@H](O)CC1 [ambroxol]
-4.66 | CC1=NNS(=O)(=O)c2c1ccc(Cl)c2Cl [PGY0072]
< -6.32 | CC(C)c1nc(N(C)S(C)(=O)=O)nc(-c2ccc(F)cc2)c1/C=C/[C@@H](O)C[C@@H](O)CC(=O)O [rosuvastatin]
-4.79 | CN1C(C(=O)Nc2ccccn2)=C(O)c2ccccc2S1(=O)=O [piroxicam]

same assay, conditions: Liver total lipid extract membrane, n=3; * = not detected at acceptor side, value calculated from limit of detection

Mean Pe | Compound
< 0,48* 10-6 cm/s | CC(C)c1nc(N(C)S(C)(=O)=O)nc(-c2ccc(F)cc2)c1/C=C/[C@@H](O)C[C@@H](O)CC(=O)O [rosuvastatin]
< 0,5* 10-6 cm/s | CCn1cc(C(=O)O)c(=O)c2cc(F)c(N3CCNCC3)cc21 [norfloxacin]

Compound | Mean Pe
ondansetron | 57.25 10-6 cm/s

same assay, conditions: bovine, PAMPA, pH 7.4

Papp at 4 h, 100 μM [×10⁻⁶ cm/s] | Compound
40.1 | COCCc1ccc(OCC(O)CNC(C)C)cc1 (stereo not shown) [metoprolol]
54 | Nc1c(Br)cc(Br)cc1CN[C@H]1CC[C@H](O)CC1 [ambroxol]
22.2 | CC1=NNS(=O)(=O)c2c1ccc(Cl)c2Cl [PGY0072]
16.3 | CN1C(C(=O)Nc2ccccn2)=C(O)c2ccccc2S1(=O)=O [piroxicam]
< 0.501 | CCn1cc(C(=O)O)c(=O)c2cc(F)c(N3CCNCC3)cc21 [norfloxacin]

assay: PAMPA permeability, brain total lipid extract (BTLE) membrane; conditions: Brain total lipid extract membrane, n=3

Mean logPe | Compound
-5.50 | CC1=NNS(=O)(=O)c2c1ccc(Cl)c2Cl [PGY0072]
< -6.33 | CC(C)c1nc(N(C)S(C)(=O)=O)nc(-c2ccc(F)cc2)c1/C=C/[C@@H](O)C[C@@H](O)CC(=O)O [rosuvastatin]
-5.45 | CN1C(C(=O)Nc2ccccn2)=C(O)c2ccccc2S1(=O)=O [piroxicam]

Compound | Mean logPe
ondansetron | -4.63

same assay, conditions: Brain total lipid extract membrane, n=3; * = not detected at acceptor side, value calculated from limit of detection

Mean Pe | Compound
< 0,86* 10-6 cm/s | CCOC(=O)[C@H](CCc1ccccc1)N[C@@H](C)C(=O)N1[C@H](C(=O)O)C[C@@H]2CCC[C@@H]21 [ramipril]
< 0,46* 10-6 cm/s | CC(C)c1nc(N(C)S(C)(=O)=O)nc(-c2ccc(F)cc2)c1/C=C/[C@@H](O)C[C@@H](O)CC(=O)O [rosuvastatin]
< 0,49* 10-6 cm/s | CCn1cc(C(=O)O)c(=O)c2cc(F)c(N3CCNCC3)cc21 [norfloxacin]

Compound | Mean Pe
ondansetron | 23.49 10-6 cm/s

same assay, conditions: pig, PAMPA, pH 7.4

Papp at 4 h, 100 μM [×10⁻⁶ cm/s] | Compound
3.23 | CC1=NNS(=O)(=O)c2c1ccc(Cl)c2Cl [PGY0072]
3.57 | CN1C(C(=O)Nc2ccccn2)=C(O)c2ccccc2S1(=O)=O [piroxicam]
< 0.49 | CCn1cc(C(=O)O)c(=O)c2cc(F)c(N3CCNCC3)cc21 [norfloxacin]

From article PMC10053807, “Natural Lipid Extracts as an Artificial Membrane for Drug Permeability Assay: In Vitro and In Silico Characterization” (Pharmaceutics, 2023)
